Measured values: US5416222A, “3-pyrrolidine methanamines wherein the alpha-carbon is substituted by 1 or 2 lower alkyl groups which are intermediates for pyridone-carboxylic acid derivatives” (Daiichi Seiyaku Co., Ltd., priority 1985, dated 1995)
Converted amounts (≈) assume the structure as drawn.

Key:
Test in all cases: antimicrobial activity, MIC, standard process of Japan Society of Chemotherapy
Assay type in all cases: cell-based
[1] = test system: E. coli, NIHJ; settings: for MIC: Escherichia coli, read-out: minimum growth inhibitory concentration (MIC)
Method: (§1) The antimicrobial activities of the compounds of the present invention were determined according to a standard process designated by the Japan Society of Chemotherapy and the minimum growth inhibitory concentrations (MIC) (μg/ml) the compounds were determined.

[2] = test system: Pr. mirabilis, IF03849; settings: for minimum growth inhibitory concentration (MIC): Pr. mirabilis
Method: as §1

[3] = test system: Pr. vulgaris, 3167; settings: for minimum growth inhibitory concentration (MIC): Pr. vulgaris; for MIC: Proteus vulgaris, 3167, Pr. vulgaris, read-out: minimum growth inhibitory concentration (MIC)
Method: as §1

[4] = test system: Ps. aeruginosa, 2063; settings: for minimum growth inhibitory concentration (MIC): Ps. aeruginosa; for MIC: Pseudomonas aeruginosa, 2063, Ps. aeruginosa, read-out: minimum growth inhibitory concentration (MIC)
Method: as §1

[5] = test system: Ps. aeruginosa, 2128; settings: for minimum growth inhibitory concentration (MIC): Ps. aeruginosa; for MIC: Pseudomonas aeruginosa, 2128, Ps. aeruginosa, read-out: minimum growth inhibitory concentration (MIC)
Method: as §1

[6] = test system: Ps. cepacia, IID1340; settings: for minimum growth inhibitory concentration (MIC): Ps. cepacia; for MIC: Burkholderia cepacia, IID1340, Ps. cepacia, read-out: minimum growth inhibitory concentration (MIC)
Method: as §1

[7] = test system: Ps. maltophilia, IID1275; settings: for minimum growth inhibitory concentration (MIC): Ps. maltophilia; for MIC: Stenotrophomonas maltophilia, IID1275, Ps. maltophilia, read-out: minimum growth inhibitory concentration (MIC)
Method: as §1

[8] = test system: S. aureus, 209P; settings: for MIC: Staphylococcus aureus, read-out: minimum growth inhibitory concentration (MIC)
Method: as §1

[9] = test system: S. epidermidis, 56500; settings: for minimum growth inhibitory concentration (MIC): S. epidermidis; for MIC: Staphylococcus epidermidis, 56500, S. epidermidis, read-out: minimum growth inhibitory concentration (MIC)
Method: as §1

[10] = test system: Ser. marcescens, 13001; settings: for minimum growth inhibitory concentration (MIC): Ser. marcescens; for MIC: Serratia marcescens, 13001, Ser. marcescens, read-out: minimum growth inhibitory concentration (MIC)
Method: as §1

[11] = test system: Sh. flexneri, 2a5503; settings: for MIC: Shigella flexneri, read-out: minimum growth inhibitory concentration (MIC)
Method: as §1

[12] = test system: Str. faecalis, ATCC 19433; settings: for minimum growth inhibitory concentration (MIC): Str. faecalis
Method: as §1

[13] = test system: Str. pyogenes, G-36; settings: for minimum growth inhibitory concentration (MIC): Str. pyogenes
Method: as §1

| SMILES | minimum growth inhibitory concentration (MIC) [1] [µg/mL] | minimum growth inhibitory concentration (MIC) [2] [µg/mL] | minimum growth inhibitory concentration (MIC) [3] [µg/mL] | minimum growth inhibitory concentration (MIC) [4] [µg/mL] | minimum growth inhibitory concentration (MIC) [5] [µg/mL] | minimum growth inhibitory concentration (MIC) [6] [µg/mL] | minimum growth inhibitory concentration (MIC) [7] [µg/mL] | minimum growth inhibitory concentration (MIC) [8] [µg/mL] | minimum growth inhibitory concentration (MIC) [9] [µg/mL] | minimum growth inhibitory concentration (MIC) [10] [µg/mL] | minimum growth inhibitory concentration (MIC) [11] [µg/mL] | minimum growth inhibitory concentration (MIC) [12] [µg/mL] | minimum growth inhibitory concentration (MIC) [13] [µg/mL] | MIC [1] [µg/mL] | MIC [3] [µg/mL] | MIC [4] [µg/mL] | MIC [5] [µg/mL] | MIC [6] [µg/mL] | MIC [7] [µg/mL] | MIC [8] [µg/mL] | also measured |
| --- | --- | --- | --- | --- | --- | --- | --- | --- | --- | --- | --- | --- | --- | --- | --- | --- | --- | --- | --- | --- | --- |
| CC(N)C1CCN(c2nc3c(cc2F)c(=O)c(C(=O)O)cn3C2CC2)C1 (stereo not shown) [Example 19] | ≤ 0.05 | 0.10 | ≤ 0.05 | 0.20 | ≤ 0.05 | 0.39 | 0.20 | ≤ 0.05 | ≤ 0.05 | ≤ 0.05 | ≤ 0.05 | 0.10 | 0.20 |  |  |  |  |  |  |  |  |
| CC(N)C1CCN(c2nc3c(cc2F)c(=O)c(C(=O)O)cn3C2CC2)C1 (stereo not shown) [Example 18, 7-[3-(1-Aminoethyl)-1-pyrrolidinyl]-1-1-cyclopropyl-6-fluoro-1,4-dihydro-4-oxo-1,8-naphthylidine-3-carboxylic acid] | ≤ 0.05 | 0.20 | 0.10 | 0.39 | 0.20 | 0.39 | 0.20 | ≤ 0.05 | ≤ 0.05 | 0.20 | ≤ 0.05 | 0.20 | 0.39 |  |  |  |  |  |  |  |  |
| CCn1cc(C(=O)O)c(=O)c2cc(F)c(N3CCC(C4(N)CC4)C3)c(F)c21 (stereo not shown) [Example 16, 7-[3-(1-aminocyclopropyl)-1-pyrrolidinyl]-1-ethyl-6,8-difluoro-1,4-dihydro-4-oxoquinoline-3-carboxylic acid] |  |  |  |  |  |  |  |  |  |  |  |  |  | ≤ 0.05 | 0.2 (≈ 0.53 µM) | 1.56 (≈ 4.13 µM) | 0.39 (≈ 1.03 µM) | 0.78 (≈ 2.07 µM) | 0.39 (≈ 1.03 µM) | ≤ 0.05 | MIC ([2]; Proteus mirabilis, IF03849, Pr. mirabilis, read-out: minimum growth inhibitory concentration (MIC)): 0.39 µg/mL (≈ 1.03 µM); MIC [9]: 0.2 µg/mL (≈ 0.53 µM); MIC [10]: 0.39 µg/mL (≈ 1.03 µM); MIC [11]: ≤ 0.05 µg/mL; MIC ([12]; Enterococcus faecalis, ATCC19433, Str. faecalis, read-out: minimum growth inhibitory concentration (MIC)): 0.39 µg/mL (≈ 1.03 µM); MIC ([13]; Streptococcus pyogenes, G36, Str. pyogenes, read-out: minimum growth inhibitory concentration (MIC)): 0.2 µg/mL (≈ 0.53 µM) |
| CNC(C)C1CCN(c2c(F)cc3c(=O)c(C(=O)O)cn(C4CC4)c3c2F)C1 (single isomer, unassigned) [Example 6, 1-Cyclopropyl-6,8-difluoro-1,4-dihydro-7-[3-(1-methylaminoethyl)-1-pyrrolidinyl]-4-oxoquinoline-3-carboxylic acid] |  | 0.20 |  |  |  |  |  |  |  |  |  | 0.20 | 0.20 | ≤ 0.05 | 0.1 (≈ 0.255 µM) | 0.39 (≈ 0.996 µM) | 0.2 (≈ 0.511 µM) | 0.78 (≈ 1.99 µM) | 0.2 (≈ 0.511 µM) | ≤ 0.05 | MIC [9]: 0.1 µg/mL (≈ 0.255 µM); MIC [10]: 0.2 µg/mL (≈ 0.511 µM); MIC [11]: ≤ 0.05 µg/mL |
